A word on the IC50: it is the point on the concentration scale where inhibition reaches its midpoint.

Each structure is given as a SMILES string. Like-named read-outs stand apart in the source and are kept apart here.

Consider four compounds from patent EP0935963A2, “The use of MMP-13 selective inhibitors for the treatment of osteoarthritis and other matrix metalloproteinase-mediated disorders” (Pfizer Products Inc., priority 1997, dated 1999).

Series [1] relates to bovine nasal cartilage explants. The series can be described thus: IL-1 Induced Cartilage Collagen Degradation From Bovine Nasal Cartilage (cartilage explant assay). The series is classed as cell-based. The note with it: Bos taurus. The source says:
This assay uses bovine nasal cartilage explants which are commonly used to test the efficacy of various compounds to inhibit either IL-1 induced proteoglycan degradation or IL-1 induced collagen degradation. Bovine nasal cartilage is a tissue that is very similar to articular cartilage, i.e. chondrocytes surrounded by a matrix that is primarily type II collagen and aggrecan. The tissue is used because it: (1) is very similar to articular cartilage, (2) is readily available, (3) is relatively homogeneous, and (4) degrades with predictable kinetics after IL-1 stimulation.
Two variations of this assay have been used to assay compounds. Both variations give similar data. The two variations are described below:
Three plugs of bovine nasal cartilage (approximately 2 mm diameter x 1.5 mm long) are placed into each well of a 24 well tissue culture plate. One ml of serumless medium is then added to each well. Compounds are prepared as 10 mM stock solutions in DMSO and then diluted appropriately in serumless medium to final concentrations, e.g., 50, 500 and 5000 nM. Each concentration is assayed in triplicate.
Human recombinant IL-1α (5ng/mL) (IL-1) is added to triplicate control wells and to each well containing drug. Triplicate control wells are also set up in which neither drug nor IL-1 are added. The medium is removed and fresh medium containing IL-1 and the appropriate drug concentrations is added on days 6, 12, 18 and 24 or every 3 - 4 days if necessary. The media removed at each time point is stored at -20°C for later analysis. When the cartilage in the IL-1 alone wells has almost completely resorbed (about day 21), the experiment is terminated. The medium, is removed and stored. Aliquots (100 ul) from each well at each time point are pooled, digested with papain and then analyzed for hydroxyproline content. Background hydroxyproline (average of wells with no IL-1 and no drug) is subtracted from each data point and the average calculated for each triplicate. The data is then expressed as a percent of the IL-1 alone average value and plotted. The IC50 is determined from this plot.
The experimental set-up is the same as outlined above in Variation 1, until day 12. On day 12, the conditioned medium from each well is removed and frozen. Then one ml of phosphate buffered saline (PBS) containing 0.5 µg/ml trypsin is added to each well and incubation continued for a further 48 hours at 37°C. After 48 hours incubation in trypsin, the PBS solution is removed. Aliquots (50 µl) of the PBS/trypsin solution and the previous two time points (days 6 and 12) are pooled. hydrolyzed and hydroxyproline content determined. Background hydroxyproline (average of wells with no IL-1 and no drug) is subtracted from each data point and the average calculated for each triplicate. The data is then expressed as a percent of the IL-1 alone average value and plotted. The IC50 is determined from this plot. In this variation, the time course of the experiment is shortened considerably. The addition of trypsin for 48 hours after 12 days of IL-1 stimulation likely releases any type II collagen that has been damaged by collagenase activity but not yet released from the cartilage matrix. In the absence of IL-1 stimulation, trypsin treatment produces only low background levels of collagen degradation in the cartilage explants.

For series [2], the system named is cartilage conditioned medium collagenase activity. Description: Collagen film assay with cartilage conditioned medium as enzyme source. The series is classed as biochemical. As to the method: (§1) Rat type I collagen is radiolabeled with ^14C acetic anhydride (T.E. Cawston and A.J. Barrett, Anal. Biochem., 99, 340-345 (1979)) and used to prepare 96 well plates containing radiolabeled collagen films (Barbara Johnson-Wint, Anal. Biochem., 104, 175-181 (1980)). When a solution containing collagenase is added to the well, the enzyme cleaves the insoluble collagen which unwinds and is thus solubilized. Collagenase activity is directly proportional to the amount of collagen solubilized, determined by the proportion of radioactivity released into the supernatant as measured in a standard scintillation counter. Collagenase inhibitors are, therefore, compounds which reduce the radioactive counts released with respect to the controls with no inhibitor present. One specific embodiment of this assay is described in detail below.
(§2) Stock solutions of test compound (10mM) in dimethylsulfoxide are prepared. Dilutions of the test compounds in the Tris buffer, above, are made to 0.2, 2.0, 20, 200, 2000 and 20000 nM.
(§3) 100 µl of appropriate drug dilution and 100 µl of diluted enzyme are pipetted into wells of a 96 well plate containing collagen films labeled with ^14C-collagen. The final enzyme concentration is 0.3 µg/ml while the final drug concentration is 0.1, 1.0, 10, 100, 1000 nM. Each drug concentration and control is analyzed in triplicate. Triplicate controls are also run for the conditions in which no enzyme is present and for enzyme in the absence of any compound.
(§4) The plates are incubated at 37°C for a time period such that around 30 - 50% of the available collagen is solubilized - determined by counting additional control wells at various time points. In most cases around 9 hours of incubation are required. When the assay has progressed sufficiently, the supernatant from each well is removed and counted in a scintillation counter. The background counts (determined by the counts in the wells with no enzyme) are subtracted from each sample and the % release calculated in relation to the wells with enzyme only and no inhibitor. The triplicate values for each point are averaged and the data graphed as percent release versus drug concentration. IC50's are determined from the point at which 50% inhibition of release of radiolabeled collagen is obtained.
To determine the identity of the active collagenases in cartilage conditioned medium, assays were carried out using collagen as a substrate, cartilage conditioned medium containing collagenase activity and inhibtors of varying selectivity. The cartilage conditioned medium was collected during the time at which collagen degradation was occurring and thus is representative of the collagenases responsible for the collagen breakdown. Assays were carried out as outlined above except that instead of using recombinant MMP-13 or recombinant MMP-1, cartilage conditioned medium was the enzyme source. […]

Series [3] addresses T1, MMP-13 (Homo sapiens, UniProt P45452). The series can be described thus: Inhibition of MMP-13, fluorescence assay. The series is classed as biochemical. The protocol: Human recombinant MMP-13 is activated with 2 mM APMA (p-aminophenyl mercuric acetate) for 1.5 hours, at 37°C and is then diluted to […] in assay buffer (50 mM Tris, pH 7.5, 200 mM sodium chloride, 5mM calcium chloride, 20µM zinc chloride, 0.02% Brij 35). Twenty-five microliters of diluted enzyme is added per well of a 96 well microfluor plate. The enzyme is then diluted in a 1:4 ratio in the assay by the addition of inhibitor and substrate to give a final concentration in the assay of 60 ng/ml.
Stock solutions (10 mM) of inhibitors are made up in dimethylsulfoxide and then diluted in assay buffer as per the inhibitor dilution scheme for inhibition of human collagenase-1. Twenty-five microliters of each concentration is added to triplicate wells of a microfluor plate. The final concentrations in the assay are 30 µM, 3 µM, 0.3 µM, and 0.03 µM.
Substrate (Dnp-Pro-Cha-Gly-Cys(Me)-His-Ala-Lys(NMA)-NH2) is prepared as for inhibition of human collagenase (MMP-1) and […] is added to each well to give a final assay concentration of 10 µM. Fluorescence readings (360 nm excitation; 450 nm emission) are taken at time 0 and every 5 minutes for 1 hour.
Positive controls and negative controls are set up in triplicate as outlined in the MMP-1 assay.
IC50's are determined as per inhibition of human collagenase (MMP-1). If IC50's are reported to be less than […], inhibitors are then assayed at final concentrations of 0.3 µM, 0.03 µM, 0.003 µM and 0.0003 µM.

Series [4] addresses T1, MMP-13. Description: biochemical. As to the method:
as §1, with “Collagenase activity is directly proportional to the amount of collagen solubilized, determined by the proportion of radioactivity released into the supernatant as measured in a standard scintillation counter.” left out
(§5) For determining the selectivity of compounds for MMP-13 versus MMP-1 using collagen as a substrate, the following procedure is used. Recombinant human proMMP-13 or proMMP-1 is activated according to the procedures outlined in Experiment 1. The activated MMP-13 or MMP-1 is diluted to 0.6 ug/ml with buffer ( 50 mM Tris pH 7.5, 150 mM NaCI, 10 mM CaCl2, 1 uM ZnCl2, 0.05% Brij-35, 0.02% sodium azide).
as §2, §3, §4

The conditions of series [5]: clinical trial data, Proceedings of ASCO, 15, 490 (1996); cited from earlier work.
The target of series [6] is T2, Human recombinant collagenase-1 (Homo sapiens, UniProt P03956).
T2 sequence (P03956 100-469): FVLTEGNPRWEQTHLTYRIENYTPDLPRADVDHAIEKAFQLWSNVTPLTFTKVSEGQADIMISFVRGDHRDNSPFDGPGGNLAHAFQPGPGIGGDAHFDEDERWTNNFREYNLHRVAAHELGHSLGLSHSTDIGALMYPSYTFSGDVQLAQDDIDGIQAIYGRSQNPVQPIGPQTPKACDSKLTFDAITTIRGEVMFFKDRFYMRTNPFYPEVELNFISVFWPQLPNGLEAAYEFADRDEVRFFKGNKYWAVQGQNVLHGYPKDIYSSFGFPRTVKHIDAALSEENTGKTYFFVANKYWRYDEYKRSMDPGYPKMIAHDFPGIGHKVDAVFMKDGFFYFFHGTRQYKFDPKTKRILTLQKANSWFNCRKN
The series can be described thus: Inhibition of Human Collagenase (MMP-1), fluorescence assay. The series is classed as biochemical. As to the method:
Human recombinant collagenase-1 is activated with trypsin.
The final concentration of inhibitor will be a 1:4 dilution after addition of enzyme and substrate.
Final concentration of collagenase in the assay is 60 ng/ml.
Fluorescence versus time is then plotted for both the blank and collagenase containing samples (data from triplicate determinations is averaged). […] The zero time is used as a blank for each compound at each concentration and these values are subtracted from the 120 minute data.

In the next series the target is T3, MMP-1 (Homo sapiens, UniProt P03956).
T3 sequence (P03956 100-469): T2 sequence (P03956 100-469)
Description: biochemical. As to the method:
as §1, with “Collagenase activity is directly proportional to the amount of collagen solubilized, determined by the proportion of radioactivity released into the supernatant as measured in a standard scintillation counter.” left out
as §5, §2, §3, §4

Where [7] appears, read: 504 h, Variation 1: IL-1 stimulation until about day 21, hydroxyproline content, read-out: Cartilage Explant Assay IC50 Variation 1.
Where [8] appears, read: read-out: Average IC50 (variation 1 and 2), average of variation 1 and 2.
The mark [9] stands for this setting: Variation 2: 12 days IL-1, then trypsin 48 hours, hydroxyproline content, read-out: Cartilage Explant Assay IC50 Variation 2.
[10] abbreviates: Table 2, collagen film substrate.
[11] abbreviates: Table 3 (repeated for comparison).

Turning to `CNC(=O)[C@H](Cc1ccc(OC)cc1)NC(=O)C(CC(=O)NO)CC(C)C` (stereo partly drawn) [Example 1, reference compound], the IC50 was 60 nM in series [1] (setting [7]); 90 nM in series [1] (setting [8]); 50 nM in series [1] (setting [9]); 10 nM in series [2] (setting [10]); 10 nM in series [2] (setting [11]); 1.5 nM on MMP-13 [3]. The compound also registered an IC50 at MMP-13 [4] of 1.5 nM. Also, the “inhibition of the cartilage conditioned medium collagenase activity (in words)” value (from here on “inhibition”) in series [2] was “potent inhibitor”.

For the compound `CNC(=O)[C@@H](NC(=O)[C@H](CC(C)C)[C@H](O)C(=O)NO)C(C)(C)C` [marimastat], the “connective tissue side effects” value in series [5] was “significant dose-related connective tissue side effects”.

In the case of `O=C(CN(Cc1cccnc1)S(=O)(=O)c1ccc(OCc2ccccc2)cc1)NO` [Example 2], the 50% inhibitory concentration (IC50) in series [6] (fluorescent peptide substrate, read-out: MMP-1 Fluor. IC50) was 17.7 µM; in series [1] (setting [7]) it was 900 nM; in series [1] (setting [8]), 725 nM; in series [1] (setting [9]), 550 nM; in series [2] (setting [10]) it was 220 nM; in series [2] (setting [11]), 220 nM. In addition, the IC50 on MMP-13 [3] (fluorescent peptide substrate, read-out: MMP-13 Fluor. IC50) was found to be 5.4 nM; on MMP-1 (Table 2, type I collagen film substrate, read-out: MMP-1 Type I Collagen IC50), 22 µM; on MMP-13 [4] (Table 2, type I collagen film substrate, read-out: MMP-13 Type 1 Collagen IC50), 52 nM. In series [2], the “inhibition” value is reported as “potent inhibitors”.

Consider `CNC(=O)C(Cc1ccc(OC)cc1)NC(=O)C(CCCCOc1ccccc1)CP(=O)(O)Cc1ccc(Cc2ccccc2)cc1` (stereo not drawn) [Example 3], for which the IC50 in series [6] was 21.7 µM; in series [1] (setting [9]) it was 830 nM; in series [2] (setting [10]), 400 nM; in series [2] (setting [11]), 400 nM; on MMP-13 [3], 70 nM; on MMP-1 it was 40 µM. For the same compound, the IC50 on MMP-13 [4] worked out at 40 nM. Further, in series [2], the “inhibition” value is on record as “potent inhibitors”.
